The values that follow come from patent US20220324835A1 (Nurix Therapeutics, Inc., priority 2018, published 2022).

Like-named read-outs stand apart in the source and are kept apart here. Where only a bound is given, the exact number is not on record here.

In assay [1] the test system is T-cell. Kind of assay: CD25 cell surface staining on T-cells stimulated with anti-CD3 antibody alone (Biological Example 2). Type of assay: cell-based, human. Particulars: T-cell, read-out: CD25 staining Anti-CD3 stimulation; for fold induction at 1 µM: 1 μM Cbl-b inhibitor; for fold induction at 8 µM: 8 μM Cbl-b inhibitor.
Assay [2] concerns T-cell. Kind of assay: IL-2 secretion from T-cells stimulated with anti-CD3 antibody alone (Biological Example 2). Type of assay: cell-based, human. As to conditions: T-cell, read-out: IL-2 secretion Anti-CD3 stimulation; for fold induction at 1 µM: 1 μM Cbl-b inhibitor; for fold induction at 8 µM: 8 μM Cbl-b inhibitor.
Assay [3] deals with T-cell. Kind of assay: IL-2 secretion from T-cells co-stimulated with anti-CD3 and anti-CD28 antibody (Biological Example 2). The class given is cell-based, human. As to conditions: Homo sapiens, T-cell. The essentials:
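T-cells were stimulated with anti-CD3 antibody alone or with anti-CD28 antibody, in the presence or absence of Cbl-b inhibitor. IL-2 secretion or CD25 surface staining was measured, and values expressed as fold over the uninhibited baseline […].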

The subject of assay [4] is primary human NK cells. Briefly: NK cell activation assessed by cytokine secretion (coculture with K562 NucRed target cells). Type of assay: cell-based. As to conditions: K562, NK cells cocultured with K562 NucRed, 1:1 E/T; for fold induction at 0.625 µM: 0.625 μM compound; for fold induction at 2.5 µM: 2.5 μM compound; for fold induction at 10 µM: 10 μM compound. An outline of the steps: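 Primary NK cells from donor PBMC, IL-2 (60 ng/mL) overnight, then Cbl-b inhibitor (e.g. 10, 1 or 0.1 μM; DMSO <0.1%) for 1 h before 6 h coculture with K562 NucRed at effector:target ratios such as 5:1, 1:1 or 1:5. Supernatant IFNγ, TNFα, MIP1β measured by ELISA or Luminex; fold change over inhibitor-free baseline, >2.0-fold positive.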

The mark [5] stands for this setting: fold change over baseline, primary human total T-cells.
The mark [6] stands for this setting: fold change over baseline, 0.3 μM Cbl-b inhibitor, primary human total T-cells, read-out: IL-2 secretion Anti-CD3/Anti-CD28 stimulation.
Where [7] appears, read: fold change over baseline, 1 μM Cbl-b inhibitor, primary human total T-cells, read-out: IL-2 secretion Anti-CD3/Anti-CD28 stimulation.
Setting [8] is: fold change over baseline, 4 μM Cbl-b inhibitor, primary human total T-cells, read-out: IL-2 secretion Anti-CD3/Anti-CD28 stimulation.
Where [9] appears, read: read-out: IFNγ secretion, fold change over baseline.
Where [10] appears, read: read-out: TNFα secretion, fold change over baseline.
Setting [11] is: 0.3 μM compound, primary human total T-cells, baseline = anti-CD3/anti-CD28 stimulated cells without inhibitor, read-out: IL-2 secretion, Anti-CD3/Anti-CD28 stimulation, fold change over baseline.
The mark [12] stands for this setting: 1 μM compound, primary human total T-cells, baseline = anti-CD3/anti-CD28 stimulated cells without inhibitor, read-out: IL-2 secretion, Anti-CD3/Anti-CD28 stimulation, fold change over baseline.
Where [13] appears, read: 4 μM compound, primary human total T-cells, baseline = anti-CD3/anti-CD28 stimulated cells without inhibitor, read-out: IL-2 secretion, Anti-CD3/Anti-CD28 stimulation, fold change over baseline.
[14] abbreviates: Homo sapiens, fold change over baseline (anti-CD3/anti-CD28 stimulated T-cells without inhibitor).

Turning to `C[C@H](Sc1nncn1C)c1cccc(NC(=O)c2cc(C(=O)N3CC[C@H](O)C3)ccn2)c1` [Compound 140, 4-[[(3S)-3-hydroxypyrrolidin-1-yl]carbonyl]-N-[3-[(1S)-1-[(4-methyl-4H-1,2,4-triazol-3-yl)sulfanyl]ethyl]phenyl]pyridine-2-carboxamide], in assay [1] (setting [5]), the fold induction at 1 µM is 0.601 to 0.8 and the fold induction at 8 µM was in the range of 0.801 to 1. For the same compound, in assay [2] (setting [5]), the fold induction at 1 µM is less than 0.05 and the fold induction at 8 µM was less than 0.05. The fold induction at 0.3 µM in assay [3] (setting [6]) was less than 1. In addition, the fold induction at 1 µM in assay [3] (setting [7]) was less than 1. Moreover, the fold induction at 4 µM in assay [3] (setting [8]) is less than 1. In assay [4] (setting [9]), the fold induction at 0.625 µM was less than 1, the fold induction at 2.5 µM was less than 1 and the fold induction at 10 µM was in the range of 1.01 to 2. In addition, in assay [4] (setting [10]), the fold induction at 0.625 µM was less than 1, the fold induction at 2.5 µM is less than 1 and the fold induction at 10 µM is less than 1.

With `C[C@H](Cc1nncn1C)c1ccnc(N2Cc3c(cccc3C(F)(F)F)C2=O)c1` [Compound 304b, (R)-2-(4-(1-(4-methyl-4H-1,2,4-triazol-3-yl)propan-2-yl)pyridin-2-yl)-4-(trifluoromethyl)isoindolin-1-one], the fold induction at 1 µM was less than 0.6 in assay [1] (setting [5]), less than 0.05 in assay [2] (setting [5]) and less than 1 in assay [3] (setting [7]). Further, the fold induction at 8 µM was less than 0.6 in assay [1] (setting [5]) and less than 0.05 in assay [2] (setting [5]). Further, in assay [3] (setting [6]), the fold induction at 0.3 µM is less than 1. The fold induction at 4 µM in assay [3] (setting [8]) lay within 1.01 to 2.5.

Take `Cn1cnnc1[C@@H]1C[C@@H]1c1cccc(NC(=O)c2nc3c(C(F)(F)F)cccc3[nH]2)c1` [Compound 332, N-(3-((1S,2R)-2-(4-methyl-4H-1,2,4-triazol-3-yl)cyclopropyl)phenyl)-4-(trifluoromethyl)-1H-benzo[d]imidazole-2-carboxamide]: the fold induction at 1 µM in assay [1] (setting [5]) lay in the range of 0.601 to 0.8; in assay [2] (setting [5]) it was 0.101 to 0.15; in assay [3] (setting [7]), 1.01 to 2.5. In addition, the fold induction at 8 µM in assay [1] (setting [5]) is 0.801 to 1; in assay [2] (setting [5]), more than 0.201. In addition, the fold induction at 0.3 µM in assay [3] (setting [6]) was in the range of 1.01 to 2.5. The fold induction at 4 µM in assay [3] (setting [8]) fell in the range of 2.51 to 5.

Turning to `Cc1cc(C(=O)Nc2cccc([C@@](C)(F)C(F)(F)c3nncn3C)c2)nc(C2CC2)n1` [Compound 344, (R)-2-Cyclopropyl-6-methyl-N-(3-(1,1,2-trifluoro-1-(4-methyl-4H-1,2,4-triazol-3-yl)propan-2-yl)phenyl)pyrimidine-4-carboxamide], the fold induction at 1 µM in assay [1] (setting [5]) was in the range of 0.801 to 1; in assay [2] (setting [5]) it was 0.101 to 0.15; in assay [3] (setting [7]) it was 2.51 to 5. Further, the fold induction at 8 µM was more than 1 in assay [1] (setting [5]) and more than 0.201 in assay [2] (setting [5]). Besides, in assay [3] (setting [6]), the fold induction at 0.3 µM lay in the range of 1.01 to 2.5. In addition, the fold induction at 4 µM in assay [3] (setting [8]) is more than 7.5.

As for `C[C@H](Cc1nncn1C)c1cc(NCCO)nc(N2Cc3c(cccc3C(F)(F)F)C2=O)c1` [Compound 357, (R)-2-(6-(2-hydroxyethylamino)-4-(1-(4-methyl-4H-1,2,4-triazol-3-yl)propan-2-yl)pyridin-2-yl)-4-(trifluoromethyl)isoindolin-1-one], the fold induction at 1 µM was 0.601 to 0.8 in assay [1] (setting [5]), 0.051 to 0.1 in assay [2] (setting [5]) and 1.01 to 2.5 in assay [3] (setting [7]). For the same compound, the values for the fold induction at 8 µM in assay [1] (setting [5]) and in assay [2] (setting [5]) were more than 1 and 0.151 to 0.2, respectively. Also, the fold induction at 0.3 µM in assay [3] (setting [6]) is 1.01 to 2.5. In assay [3] (setting [8]), the fold induction at 4 µM lay within 2.51 to 5.

As for `Cn1cnnc1[C@@H]1C[C@@H]1c1cccc(N2Cc3c(ccnc3C(F)(F)F)C2=O)c1` [Compound 369, 2-{3-[(1S,2R)-2-(4-methyl-4H-1,2,4-triazol-3-yl)cyclopropyl]phenyl}-4-(trifluoromethyl)-1H,2H,3H-pyrrolo[3,4-c]pyridin-1-one], in assay [3] (setting [11]), the fold induction at 0.3 µM lay in the range of 1.01 to 2.5. Moreover, in assay [3] (setting [12]), the fold induction at 1 µM lay in the range of 1.01 to 2.5. Also, the fold induction at 4 µM in assay [3] (setting [13]) lay in the range of 1.01 to 2.5. Besides, in assay [4] (setting [9]), the fold induction at 0.625 µM was less than 1, the fold induction at 2.5 µM lay within 1.01 to 2 and the fold induction at 10 µM was in the range of 2.01 to 5. In addition, in assay [4] (setting [10]), the fold induction at 0.625 µM is less than 1, the fold induction at 2.5 µM is less than 1 and the fold induction at 10 µM is 1.01 to 2.

Consider `Cc1cc2c(c(C3CC3)n1)CN(c1cccc([C@H](C)Cc3nncn3C)c1)C2=O` [Compound 372, 4-cyclopropyl-6-methyl-2-{3-[(2R)-1-(4-methyl-4H-1,2,4-triazol-3-yl)propan-2-yl]phenyl}-1H,2H,3H-pyrrolo[3,4-c]pyridin-1-one], for which the fold induction at 0.3 µM in assay [3] (setting [11]) lay within 1.01 to 2.5. The fold induction at 1 µM in assay [3] (setting [12]) lay in the range of 1.01 to 2.5. For the same compound, the fold induction at 4 µM in assay [3] (setting [13]) was 2.51 to 5. Also, in assay [4] (setting [9]), the fold induction at 0.625 µM fell in the range of 1.01 to 2, the fold induction at 2.5 µM was 1.01 to 2 and the fold induction at 10 µM was 2.01 to 5. In assay [4] (setting [10]), the fold induction at 0.625 µM is less than 1, the fold induction at 2.5 µM is less than 1 and the fold induction at 10 µM lay in the range of 1.01 to 2.

As to `CNCc1ccc(C(=O)Nc2cccc([C@H](C)Cc3nncn3C)c2)nc1C1CC1` [Compound 376, (R)-6-cyclopropyl-N-(3-(1-(4-methyl-4H-1,2,4-triazol-3-yl)propan-2-yl)phenyl)-5-((methylamino)methyl)picolinamide], the fold induction at 0.3 µM in assay [3] (setting [11]) lay in the range of 1.01 to 2.5. For the same compound, the fold induction at 1 µM in assay [3] (setting [12]) lay within 2.51 to 5. Moreover, the fold induction at 4 µM in assay [3] (setting [13]) is more than 7.5. Besides, in assay [4] (setting [9]), the fold induction at 0.625 µM is 1.01 to 2, the fold induction at 2.5 µM was in the range of 1.01 to 2 and the fold induction at 10 µM fell in the range of 2.01 to 5. Besides, in assay [4] (setting [10]), the fold induction at 0.625 µM lay within 1.01 to 2, the fold induction at 2.5 µM was in the range of 1.01 to 2 and the fold induction at 10 µM fell in the range of 2.01 to 5.

For `C[C@H](Cc1nncn1C)c1cc(-c2cn[nH]c2)nc(N2Cc3c(cccc3C(F)(F)F)C2=O)c1` [Example 684, (R)-2-(4-(1-(4-methyl-4H-1,2,4-triazol-3-yl)propan-2-yl)-6-(1H-pyrazol-4-yl)pyridin-2-yl)-4-(trifluoromethyl)isoindolin-1-one], the fold induction at 1 µM was less than 0.6 in assay [1] (setting [14]); 0.051 to 0.1 in assay [2] (setting [14]); less than 1 in assay [3] (1 μM Cbl-b inhibitor, fold change over baseline (anti-CD3/anti-CD28 stimulated T-cells without inhibitor), read-out: IL-2 secretion Anti-CD3/Anti-CD28 stimulation). Also, in assay [3] (0.3 μM Cbl-b inhibitor, fold change over baseline (anti-CD3/anti-CD28 stimulated T-cells without inhibitor), read-out: IL-2 secretion Anti-CD3/Anti-CD28 stimulation), the fold induction at 0.3 µM is less than 1.
